These results are taken from patent US20140364500A1, “URSOLIC ACID SALTS FOR TREATING DIABETES AND OBESITY” (priority 2012, published 2014).

The structures appear in SMILES notation.

Series [1] in a line: Solubility determination in water by HPLC assay. The format is physicochemical. Particulars: filtered, filtrate assayed by HPLC. How it is done: The average AUC of the three runs was used to determine the concentration.
Agilent 1100 HPLC; Eclipse XDB-C18 50×4.6 mm 1.8 micron column; Gradient—5 min 95% water (0.10% TFA) to 95% acetonitrile (0.07% TFA); 1.5 mL/min; UV Detection @ 210 nm.

For series [2] the following is noted: Merck Index, 11th Edition, page 1556; cited from earlier work.

On to `C[C@H]1[C@H](C)CC[C@]2(C(=O)O)CC[C@]3(C)C(=CC[C@@H]4[C@@]5(C)CC[C@H](O)C(C)(C)[C@@H]5CC[C@]43C)[C@H]12` [Ursolic acid], for which the “detection by HPLC assay in filtrate of water saturated with the substance” value in series [1] is recorded as “not detected”. For the same compound, in series [2], the “solubility in water (literature citation)” value is on record as “insoluble in water”.
